Test [1] concerns the target T1, ROCK1 (Homo sapiens, UniProt Q13464).
T1 construct: purchased Upstate/Chemicon 14-601
Nature of the test: Rho kinase inhibition assay (IMAP fluorescence polarization), ROCK1.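 Note: kinase reaction run 60 min at room temperature, then phosphorylated substrate captured on IMAP beads for 30 min, with fluorescence polarization read in mP.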 It is filed as biochemical.
Procedure: (§1) Following the pre-incubation, 10 μM ATP was added to initiate the reaction. After 60 minutes at room temperature, Molecular Devices IMAP™ binding solution was added to bind phosphorylated substrate. After 30 minutes of incubation in the presence of the IMAP™ beads, the fluorescence polarization was read and the ratio was reported as mP. IC50 values for compounds and EC50 values for ATP were calculated using the Prism software from Graphpad.

The target of test [2] is T2, ROCK2 (Homo sapiens, UniProt O75116).
T2 construct: purchased Upstate/Chemicon 14-451
Nature of the test: Rho kinase inhibition assay (IMAP fluorescence polarization), ROCK2.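 Note: kinase reaction started with 10 µM ATP and run 60 min at room temperature, then phosphorylated substrate captured on IMAP beads for 30 min and fluorescence polarization read in mP.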 Format: biochemical. For orientation: In fluorescence polarisation assays a small probe gives low polarisation when free and higher when bound to something large.
Procedure: as §1

The mark [3] stands for this setting: 10 μM ATP, read-out: ROCK2 Ki, Avg.

Structures are written as SMILES. Like-named read-outs stand apart in the source and are kept apart here.

T1 sequence (Q13464 17-535 limits assumed): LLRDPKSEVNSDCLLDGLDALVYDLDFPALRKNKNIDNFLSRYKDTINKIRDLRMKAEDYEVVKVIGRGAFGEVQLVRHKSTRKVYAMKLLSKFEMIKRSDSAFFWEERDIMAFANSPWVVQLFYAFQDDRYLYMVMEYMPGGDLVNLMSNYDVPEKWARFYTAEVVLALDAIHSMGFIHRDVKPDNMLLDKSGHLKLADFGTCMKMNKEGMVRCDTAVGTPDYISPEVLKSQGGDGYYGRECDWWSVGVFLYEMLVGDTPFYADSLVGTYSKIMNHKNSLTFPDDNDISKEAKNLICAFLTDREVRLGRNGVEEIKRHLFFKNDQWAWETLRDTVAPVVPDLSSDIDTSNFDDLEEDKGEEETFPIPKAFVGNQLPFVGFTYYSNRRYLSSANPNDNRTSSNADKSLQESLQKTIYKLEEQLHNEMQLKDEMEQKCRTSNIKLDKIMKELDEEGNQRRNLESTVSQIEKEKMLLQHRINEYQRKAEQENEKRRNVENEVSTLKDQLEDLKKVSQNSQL
T2 sequence (O75116 11-552 limits assumed): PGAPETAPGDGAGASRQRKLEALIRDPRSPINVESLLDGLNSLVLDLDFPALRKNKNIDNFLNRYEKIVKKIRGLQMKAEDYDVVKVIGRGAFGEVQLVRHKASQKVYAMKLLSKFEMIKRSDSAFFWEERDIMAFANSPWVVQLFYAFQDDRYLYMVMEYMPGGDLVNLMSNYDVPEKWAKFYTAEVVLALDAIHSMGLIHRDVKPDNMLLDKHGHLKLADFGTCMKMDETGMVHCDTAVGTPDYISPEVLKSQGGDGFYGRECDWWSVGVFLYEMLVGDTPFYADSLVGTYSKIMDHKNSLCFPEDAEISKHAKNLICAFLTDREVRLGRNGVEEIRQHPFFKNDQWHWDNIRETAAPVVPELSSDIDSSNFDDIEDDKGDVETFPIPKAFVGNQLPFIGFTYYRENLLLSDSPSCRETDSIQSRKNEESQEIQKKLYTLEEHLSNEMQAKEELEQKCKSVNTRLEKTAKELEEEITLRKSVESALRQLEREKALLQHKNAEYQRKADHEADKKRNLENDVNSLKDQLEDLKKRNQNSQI

Regarding `O=S(=O)(Nc1cccc(CN2CC[C@@H](Nc3cccc4cnccc34)C2)c1)N1CCCCC1` [Compound 2.069, (R)-N-(3-((3-(isoquinolin-5-ylamino)pyrrolidin-1-yl)methyl)phenyl)piperidine-1-sulfonamide], the inhibition constant (Ki) (in general, the dissociation constant of the complex between target and ligand, obtained from inhibition or displacement) in test [1] (Avg, 10 μM ATP) is 16.7 nM; in test [1] (average Ki), 16.7 nM; in test [2] (setting [3]), 2.4 nM; in test [2] (average Ki, read-out: ROCK2 Ki), 2.4 nM.

Turning to `c1cc(N[C@@H]2CCN(Cc3nc4ccccc4[nH]3)C2)c2ccncc2c1` [Compound 2.074, (R)-N-(1-((1H-benzo[d]imidazol-2-yl)methyl)pyrrolidin-3-yl)isoquinolin-5-amine], the inhibition constant Ki in test [1] (Avg, 10 μM ATP) is 133 nM; in test [2] (setting [3]), 36.4 nM.

In the case of `Clc1ccc(CN2CC[C@@H](Nc3cccc4cnccc34)C2)cc1Cl` [Compound 2.048, (R)-N-(1-(3,4-dichlorobenzyl)pyrrolidin-3-yl)isoquinolin-5-amine], the Ki in test [1] (Avg, 10 μM ATP) came out at 71.5 nM; in test [2] (setting [3]), 34.6 nM.

Turning to `OCCn1cc(CN2CCC[C@@H](Nc3ccc4[nH]ncc4c3)C2)c2ccccc21` [Compound 1.273, (R)-2-(3-((3-(1H-indazol-5-ylamino)piperidin-1-yl)methyl)-1H-indol-1-yl)ethanol], the Ki in test [1] (Avg, 10 μM ATP) was 31.3 nM; in test [1] (average Ki), 31.3 nM; in test [2] (setting [3]), 8.2 nM; in test [2] (average Ki, read-out: ROCK2 Ki), 8.2 nM.

Turning to `Clc1cccc(CN2CCC[C@@H](Nc3ccc4[nH]ncc4c3)C2)c1` [Compound 1.191, (R)-N-(1-(3-chlorobenzyl)piperidin-3-yl)-1H-indazol-5-amine], the Ki is 147 nM in test [1] (Avg, 10 μM ATP) and 33.4 nM in test [2] (setting [3]).

In the case of `CCOc1cccc(CN2CCC[C@@H](Nc3ccc4[nH]ncc4c3)C2)c1` [Compound 1.203, (R)-N-(1-(3-ethoxybenzyl)piperidin-3-yl)-1H-indazol-5-amine], the Ki worked out at 329 nM in test [1] (Avg, 10 μM ATP) and 41.6 nM in test [2] (setting [3]).

For the compound `CN(c1cccc(CN2CCC[C@@H](Nc3ccc4[nH]ncc4c3)C2)c1)S(C)(=O)=O` [Compound 1.207, (R)-N-(3-((3-(1H-indazol-5-ylamino)piperidin-1-yl)methyl)phenyl)-N-methylmethanesulfonamide], the Ki in test [1] (Avg, 10 μM ATP) was found to be 516 nM; in test [2] (setting [3]) it was 43.7 nM.

For the compound `Cc1ccc(CN2CC[C@@H](Nc3cccc4cnccc34)C2)cc1NS(C)(=O)=O` [Compound 2.076], the inhibition constant (Ki) in test [1] (Avg, 10 μM ATP) amounted to 8 nM; in test [1] (average Ki) it was 8 nM; in test [2] (setting [3]), 2.4 nM; in test [2] (average Ki, read-out: ROCK2 Ki) it was 2.4 nM.

As for `OC[C@@H](O)COc1cccc(CN2CCC[C@@H](Nc3ccc4[nH]ncc4c3)C2)c1` [Compound 1.115, (R)-3-(3-(((R)-3-(1H-indazol-5-ylamino)piperidin-1-yl)methyl)phenoxy)propane-1,2-diol], the Ki in test [1] (Avg, 10 μM ATP) was 89.7 nM; in test [2] (setting [3]), 20.6 nM.

For `COc1c(CN2CCC[C@H](Nc3ccc4[nH]ncc4c3)C2)cccc1NS(C)(=O)=O` [Compound 1.280, (S)-N-(3-((3-(1H-indazol-5-ylamino)piperidin-1-yl)methyl)-2-methoxyphenyl)methanesulfonamide], the inhibitory constant (Ki) in test [1] (Avg, 10 μM ATP) was determined as 746 nM; in test [2] (setting [3]), 38 nM.

As for `Cc1cccc(CN2CCC[C@@H](Nc3ccc4[nH]ncc4c3)C2)c1` [Compound 1.192, (R)-N-(1-(3-methylbenzyl)piperidin-3-yl)-1H-indazol-5-amine], the Ki in test [1] (Avg, 10 μM ATP) turned out to be 158 nM; in test [2] (setting [3]) it was 37.7 nM.

Take `c1cn(-c2ccc(CN3CCC[C@H](Nc4ccc5[nH]ncc5c4)C3)cc2)cn1` [Compound 1.255]: the Ki in test [1] (Avg, 10 μM ATP) amounted to 3560 nM; in test [2] (setting [3]), 359 nM.

Take `NCc1cccc(CN2CCC[C@@H](Nc3ccc4[nH]ncc4c3)C2)c1` [Compound 1.235, (R)-N-(1-(3-(aminomethyl)benzyl)piperidin-3-yl)-1H-indazol-5-amine]: the Ki in test [1] (Avg, 10 μM ATP) was found to be 1390 nM; in test [2] (setting [3]), 335 nM.

Regarding `NC(=O)COc1cccc(CN2CC[C@@H](Nc3cccc4cnccc34)C2)c1` [Compound 2.040, (R)-2-(3-((3-(isoquinolin-5-ylamino)pyrrolidin-1-yl)methyl)phenoxy)acetamide], the inhibitory constant (Ki) in test [1] (Avg, 10 μM ATP) came to 59.6 nM; in test [2] (setting [3]), 25.4 nM.

As to `CS(=O)(=O)Cc1cccc(CN2CCC[C@@H](Nc3ccc4[nH]ncc4c3)C2)c1` [Compound 1.139, (R)-N-(1-(3-(methylsuifonylmethyl)benzyl)piperidin-3-yl)-1H-indazol-5-amine], the Ki in test [1] (Avg, 10 μM ATP) was 200 nM; in test [2] (setting [3]) it was 23.2 nM.

In the case of `CCN(CC)C(=O)Nc1cccc(CN2CCC[C@@H](Nc3ccc4[nH]ncc4c3)C2)c1` [Compound 1.267, (R)-3-(3-((3-(1H-indazol-5-ylamino)piperidin-1-yl)methyl)phenyl)-1,1-diethylurea], the Ki in test [1] (Avg, 10 μM ATP) is 98.8 nM; in test [2] (setting [3]), 23.9 nM.

Consider `CC(=O)NCCOc1cccc(CN2CCC[C@H](Nc3ccc4[nH]ncc4c3)C2)c1` [Compound 1.218, (S)-N-(2-(3-((3-(1H-indazol-5-ylamino)piperidin-1-yl)methyl)phenoxy)ethyl)acetamide], for which the inhibition constant Ki in test [1] (Avg, 10 μM ATP) stood at 402 nM; in test [2] (setting [3]), 30.7 nM.

`c1cc(N2CCCC2)ccc1CN1CCC[C@@H](Nc2ccc3[nH]ncc3c2)C1` [Compound 1.248, (R)-N-(1-(4-(pyrrolidin-1-yl)benzyl)piperidin-3-yl)-1H-indazol-5-amine]: the inhibition constant (Ki) in test [1] (Avg, 10 μM ATP) was found to be 2350 nM; in test [2] (setting [3]), 891 nM.

For `COc1ccc(CN2CC[C@@H](Nc3ccc4[nH]ncc4c3)C2)cc1` [Compound 1.245, (R)-N-(1-(4-methoxybenzyl)pyrrolidin-3-yl)-1H-indazol-5-amine], the Ki was 199 nM in test [1] (Avg, 10 μM ATP) and 49.5 nM in test [2] (setting [3]).

Consider `CC(C)(C)OC(=O)NCc1ccc(CN2CCC[C@H](Nc3ccc4[nH]ncc4c3)C2)cc1` [Compound 1.199, (S)-tert-butyl 4-((3-(1H-indazol-5-ylamino)piperidin-1-yl)methyl)benzylcarbamate], for which the inhibition constant Ki in test [1] (Avg, 10 μM ATP) came out at 1860 nM; in test [2] (setting [3]) it was 213 nM.

Take `O=C(O)COc1cccc(CN2CCC[C@@H](Nc3ccc4[nH]ncc4c3)C2)c1` [Compound 1.125, (R)-2-(3-((3-(1H-indazol-5-ylamino)piperidin-1-yl)methyl)phenoxy)acetic acid]: the inhibition constant (Ki) in test [1] (Avg, 10 μM ATP) is 557 nM; in test [2] (setting [3]) it was 50.9 nM.

Regarding `c1cc(N[C@@H]2CCN(Cc3ccncn3)C2)c2ccncc2c1` [Compound 2.083, (R)-N-(1-(pyrimidin-4-ylmethyl)pyrrolidin-3-yl)isoquinolin-5-amine], the inhibitory constant (Ki) was 1880 nM in test [1] (Avg, 10 μM ATP) and 858 nM in test [2] (setting [3]).

As for `c1ccc(Cn2cc(CN3CCC[C@@H](Nc4ccc5[nH]ncc5c4)C3)c3ccccc32)cc1` [Compound 1.271, (R)-N-(11-((1-benzyl-1H-indol-3-yl)methyl)piperidin-3-yl)-1H-indazol-5-amine], the Ki in test [1] (Avg, 10 μM ATP) stood at 332 nM; in test [2] (setting [3]), 77.7 nM.

Consider `Cc1ccc(CN2CCC[C@@H](Nc3ccc4[nH]ncc4c3)C2)cc1OCC(N)=O` [Compound 1.281], for which the Ki in test [1] (Avg, 10 μM ATP) came out at 71.8 nM; in test [1] (average Ki) it was 71.8 nM; in test [2] (setting [3]), 7.4 nM; in test [2] (average Ki, read-out: ROCK2 Ki), 7.4 nM.

On to `CC(C)(C)OC(=O)COc1cccc(CN2CCC[C@H](Nc3ccc4[nH]ncc4c3)C2)c1` [Compound 1.187, (S)-tert-butyl 2-(3-((3-(1H-indazol-5-ylamino)piperidin-1-yl)methyl)phenoxy)acetate], for which the Ki was 296 nM in test [1] (Avg, 10 μM ATP) and 17.3 nM in test [2] (setting [3]).

As for `Cc1ccc(CN2CC[C@@H](Nc3cccc4cnccc34)C2)cc1OCC(=O)O` [Compound 2.073, (R)-2-(5-((3-(isoquinolin-5-ylamino)pyrrolidin-1-yl)methyl)-2-methylphenoxy)acetic acid], the inhibitory constant (Ki) in test [1] (Avg, 10 μM ATP) is 12.7 nM; in test [1] (average Ki) it was 12.7 nM; in test [2] (setting [3]) it was 4.2 nM; in test [2] (average Ki, read-out: ROCK2 Ki), 4.2 nM.

In the case of `FC(F)(F)c1cccc(CN2CC[C@@H](Nc3ccc4[nH]ncc4c3)C2)c1` [Compound 1.243, (R)-N-(1-(3-(trifluoromethyl)benzyl)pyrrolidin-3-yl)-1H-indazol-5-amine], the Ki in test [1] (Avg, 10 μM ATP) turned out to be 219 nM; in test [2] (setting [3]), 84.3 nM.

Consider `NCc1cccc(CN2CCC[C@H](Nc3ccc4[nH]ncc4c3)C2)c1` [Compound 1.184, (S)-N-(1-(3-(aminomethyl)benzyl)piperidin-3-yl)-1H-indazol-5-amine], for which the inhibition constant (Ki) in test [1] (Avg, 10 μM ATP) was found to be 843 nM; in test [2] (setting [3]), 90.9 nM.

Regarding `O=C(OCCOc1cccc(CN2CCC[C@@H](Nc3ccc4[nH]ncc4c3)C2)c1)c1ccccc1` [Compound 1.225, (R)-2-(3-((3-(1H-indazol-5-ylamino)piperidin-1-yl)methyl)phenoxy)ethyl benzoate], the inhibition constant Ki turned out to be 605 nM in test [1] (Avg, 10 μM ATP) and 189 nM in test [2] (setting [3]).

In the case of `CS(=O)(=O)c1ccc(CN2CC[C@@H](Nc3ccc4[nH]ncc4c3)C2)cc1` [Compound 1.244, (R)-N-(1-(4-(methylsulfonyl)benzyl)pyrrolidin-3-yl)-1H-indazol-5-amine], the Ki in test [1] (Avg, 10 μM ATP) was 683 nM; in test [2] (setting [3]), 139 nM.

For `OC[C@@H](O)COc1cccc(CN2CCC[C@H](Nc3ccc4[nH]ncc4c3)C2)c1` [Compound 1.117, (R)-3-(3-(((S)-3-(1H-indazol-5-ylamino)piperidin-1-yl)methyl)phenoxy)propane-1,2-diol], the inhibition constant (Ki) was 208 nM in test [1] (Avg, 10 μM ATP) and 35.8 nM in test [2] (setting [3]).

Take `OCCOc1ccc(CN2CCC[C@H](Nc3ccc4[nH]ncc4c3)C2)cc1` [Compound 1.228]: the inhibitory constant (Ki) in test [1] (Avg, 10 μM ATP) amounted to 1880 nM; in test [2] (setting [3]) it was 140 nM.

For the compound `c1cc(N[C@@H]2CCN(Cc3cnccn3)C2)c2ccncc2c1` [Compound 2.086, (R)-N-(1-(pyrazin-2-ylmethyl)pyrrolidin-3-yl)isoquinolin-5-amine], the Ki in test [1] (Avg, 10 μM ATP) stood at 1250 nM; in test [2] (setting [3]) it was 358 nM.

Consider `O=[N+]([O-])c1cc(CN2CC[C@@H](Nc3cccc4cnccc34)C2)cs1` [Compound 2.089, (R)-N-(1-((5-nitrothiophen-3-yl)methyl)pyrrolidin-3-yl)isoquinolin-5-amine], for which the Ki was determined as 102 nM in test [1] (Avg, 10 μM ATP) and 32.9 nM in test [2] (setting [3]).

Turning to `Cc1ccc(CN2CCC[C@H](Nc3ccc4[nH]ncc4c3)C2)cc1OCC(=O)O` [Compound 1.240], the Ki in test [1] (Avg, 10 μM ATP) is 625 nM; in test [2] (setting [3]), 60.1 nM.

(Values after patent publication US20090325959A1 (priority 2008, published 2009).)
